Values after ≈ are worked out from the molar mass of the structure shown.
Tests used:
[1] = SUPPLEMENTARY: Lyophilisation Solubility Assay (LYSA); assay type: physicochemical; conditions: read-out: Kinetic_solubility
[2] = SUPPLEMENTARY: Lipophilicity (log D) Determination by high-throughput shake-flask; assay type: physicochemical; conditions: octanol/water
[3] = molecular target: T1, Carnitine O-palmitoyltransferase 1, liver isoform (Rattus norvegicus, UniProt P32198); test: (§1) SUPPLEMENTARY: Inhibition of Carnitine palmitoyltransferase 1, liver isoform
T1 sequence (P32198 whole entry): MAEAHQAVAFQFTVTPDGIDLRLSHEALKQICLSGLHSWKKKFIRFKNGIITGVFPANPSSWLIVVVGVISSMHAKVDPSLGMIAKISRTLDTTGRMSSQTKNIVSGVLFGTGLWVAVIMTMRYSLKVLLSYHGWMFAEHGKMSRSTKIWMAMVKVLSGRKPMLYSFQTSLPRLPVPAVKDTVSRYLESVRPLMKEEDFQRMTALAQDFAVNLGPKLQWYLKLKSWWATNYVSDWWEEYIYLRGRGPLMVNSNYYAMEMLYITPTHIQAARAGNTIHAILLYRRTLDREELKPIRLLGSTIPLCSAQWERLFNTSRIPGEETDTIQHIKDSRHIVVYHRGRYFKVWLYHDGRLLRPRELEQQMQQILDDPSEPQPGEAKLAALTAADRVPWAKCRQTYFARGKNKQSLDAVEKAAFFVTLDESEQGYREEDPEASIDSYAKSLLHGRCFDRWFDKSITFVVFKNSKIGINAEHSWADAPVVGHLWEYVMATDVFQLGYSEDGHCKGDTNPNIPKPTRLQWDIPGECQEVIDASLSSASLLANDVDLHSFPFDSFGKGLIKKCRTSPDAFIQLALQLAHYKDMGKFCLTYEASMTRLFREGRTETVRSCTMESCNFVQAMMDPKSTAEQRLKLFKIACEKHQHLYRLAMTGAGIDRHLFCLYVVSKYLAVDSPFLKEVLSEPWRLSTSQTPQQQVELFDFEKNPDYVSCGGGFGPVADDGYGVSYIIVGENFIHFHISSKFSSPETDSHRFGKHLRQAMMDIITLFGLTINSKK

[4] = molecular target: T2, Carnitine O-palmitoyltransferase 1, liver isoform (Homo sapiens, UniProt P50416); test: as §1
T2 sequence (P50416 whole entry): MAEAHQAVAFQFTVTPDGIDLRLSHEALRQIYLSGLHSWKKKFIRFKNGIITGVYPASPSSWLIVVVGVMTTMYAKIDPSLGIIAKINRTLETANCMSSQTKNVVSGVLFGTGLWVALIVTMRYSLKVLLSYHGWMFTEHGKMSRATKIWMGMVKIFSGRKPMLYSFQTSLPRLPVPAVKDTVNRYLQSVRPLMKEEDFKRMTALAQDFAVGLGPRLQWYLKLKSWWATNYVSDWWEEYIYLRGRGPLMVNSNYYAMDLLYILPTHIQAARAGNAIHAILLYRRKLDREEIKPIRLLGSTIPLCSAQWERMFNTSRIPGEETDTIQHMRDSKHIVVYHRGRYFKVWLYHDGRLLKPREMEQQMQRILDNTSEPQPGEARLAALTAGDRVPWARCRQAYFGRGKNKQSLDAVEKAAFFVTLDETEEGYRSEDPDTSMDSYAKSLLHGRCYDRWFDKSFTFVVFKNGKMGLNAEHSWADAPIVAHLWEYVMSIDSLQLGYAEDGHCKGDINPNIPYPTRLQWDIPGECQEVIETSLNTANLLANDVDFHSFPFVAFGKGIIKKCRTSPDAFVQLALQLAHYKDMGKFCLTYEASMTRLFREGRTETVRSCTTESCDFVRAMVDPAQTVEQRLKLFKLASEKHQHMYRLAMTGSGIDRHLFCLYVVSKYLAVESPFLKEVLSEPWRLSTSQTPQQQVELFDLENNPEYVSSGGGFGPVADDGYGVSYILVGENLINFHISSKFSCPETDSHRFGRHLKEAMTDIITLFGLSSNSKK

[5] = molecular target: T3, Carnitine O-palmitoyltransferase 2, mitochondrial (Rattus norvegicus, UniProt P18886); test: (§2) SUPPLEMENTARY: Inhibition of Carnitine palmitoyltransferase 2
T3 sequence (P18886 whole entry): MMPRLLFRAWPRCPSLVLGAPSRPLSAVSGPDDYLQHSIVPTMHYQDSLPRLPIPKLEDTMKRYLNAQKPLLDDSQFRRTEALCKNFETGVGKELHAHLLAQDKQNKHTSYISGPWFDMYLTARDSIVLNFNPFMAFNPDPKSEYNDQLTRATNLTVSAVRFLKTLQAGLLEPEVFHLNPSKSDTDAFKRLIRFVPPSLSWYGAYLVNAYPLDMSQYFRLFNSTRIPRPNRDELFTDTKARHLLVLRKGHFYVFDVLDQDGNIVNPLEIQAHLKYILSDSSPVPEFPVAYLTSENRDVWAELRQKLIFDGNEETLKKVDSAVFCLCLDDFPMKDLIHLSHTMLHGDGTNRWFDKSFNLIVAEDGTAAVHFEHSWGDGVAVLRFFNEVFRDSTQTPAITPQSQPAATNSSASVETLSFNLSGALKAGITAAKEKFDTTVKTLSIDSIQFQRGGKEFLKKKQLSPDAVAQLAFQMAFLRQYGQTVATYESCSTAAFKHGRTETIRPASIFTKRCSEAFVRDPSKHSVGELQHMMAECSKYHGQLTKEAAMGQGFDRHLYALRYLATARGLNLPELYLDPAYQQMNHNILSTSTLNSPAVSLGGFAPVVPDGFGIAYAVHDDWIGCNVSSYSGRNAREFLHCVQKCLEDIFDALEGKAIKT

[6] = molecular target: T4, Carnitine O-palmitoyltransferase 2, mitochondrial (Homo sapiens, UniProt P23786); test: as §2
T4 sequence (P23786 whole entry): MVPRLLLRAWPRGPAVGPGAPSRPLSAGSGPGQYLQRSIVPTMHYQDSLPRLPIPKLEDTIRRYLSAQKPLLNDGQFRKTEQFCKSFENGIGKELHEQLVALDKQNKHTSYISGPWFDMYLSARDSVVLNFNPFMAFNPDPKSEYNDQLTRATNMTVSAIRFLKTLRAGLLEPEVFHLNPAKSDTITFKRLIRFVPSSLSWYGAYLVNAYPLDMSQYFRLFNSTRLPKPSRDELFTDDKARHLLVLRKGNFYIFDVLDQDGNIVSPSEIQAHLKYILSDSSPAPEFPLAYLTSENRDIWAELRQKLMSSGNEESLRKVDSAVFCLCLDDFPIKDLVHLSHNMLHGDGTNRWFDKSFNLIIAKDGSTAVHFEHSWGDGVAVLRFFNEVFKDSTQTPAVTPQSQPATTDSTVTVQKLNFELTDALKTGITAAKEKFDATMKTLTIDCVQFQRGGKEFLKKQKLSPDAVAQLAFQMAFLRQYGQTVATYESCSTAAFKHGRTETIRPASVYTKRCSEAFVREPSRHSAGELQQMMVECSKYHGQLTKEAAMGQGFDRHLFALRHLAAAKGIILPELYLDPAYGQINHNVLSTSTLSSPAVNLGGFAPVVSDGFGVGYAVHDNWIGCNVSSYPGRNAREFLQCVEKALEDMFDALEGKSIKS

[7] = SUPPLEMENTARY: PAMPA permeability assay; assay type: physicochemical; conditions: read-out: Permeability
[8] = molecular target: T5, Carnitine O-palmitoyltransferase 1, muscle isoform (Homo sapiens, UniProt Q92523); test: SUPPLEMENTARY: Inhibition of Carnitine palmitoyltransferase 1, muscle isoform; design: species or system Muscle tissue
T5 sequence (Q92523 whole entry): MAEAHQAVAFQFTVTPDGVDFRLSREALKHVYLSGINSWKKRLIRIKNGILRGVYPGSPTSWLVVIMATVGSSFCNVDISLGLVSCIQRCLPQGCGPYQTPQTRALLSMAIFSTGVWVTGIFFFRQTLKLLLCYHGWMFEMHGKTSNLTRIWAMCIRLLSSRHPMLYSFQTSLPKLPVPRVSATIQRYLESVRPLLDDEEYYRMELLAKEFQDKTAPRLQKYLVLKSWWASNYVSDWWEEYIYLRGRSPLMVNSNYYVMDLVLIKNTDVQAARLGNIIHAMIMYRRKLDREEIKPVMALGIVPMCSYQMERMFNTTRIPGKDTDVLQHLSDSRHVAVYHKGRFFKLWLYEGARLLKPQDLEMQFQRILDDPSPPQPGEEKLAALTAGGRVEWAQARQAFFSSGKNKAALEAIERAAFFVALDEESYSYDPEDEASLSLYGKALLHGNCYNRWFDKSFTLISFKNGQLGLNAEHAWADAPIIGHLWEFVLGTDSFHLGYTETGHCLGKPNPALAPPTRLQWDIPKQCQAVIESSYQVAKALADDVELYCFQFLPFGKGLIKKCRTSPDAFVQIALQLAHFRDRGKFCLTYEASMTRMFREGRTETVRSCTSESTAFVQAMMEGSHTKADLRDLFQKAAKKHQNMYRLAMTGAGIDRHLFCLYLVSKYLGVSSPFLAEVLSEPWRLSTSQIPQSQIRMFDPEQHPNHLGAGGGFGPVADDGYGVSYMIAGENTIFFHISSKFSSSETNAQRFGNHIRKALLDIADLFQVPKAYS

solubility kinetic [1] [µg/mL] | logD [2] | IC50 [3] [nM] | IC50 [4] [nM] | IC50 [5] [nM] | IC50 [6] [nM] | Papp [7] [×10⁻⁶ cm/s] | IC50 [8] [nM] | Compound
16 (≈ 35.2 µM) | 0.5 | 21.8 | 20.1 | > 100000 | 54600 | 0.0275 | 226 | O=C(Nc1ccc(-c2nnn[nH]2)cc1)c1cccc(NS(=O)(=O)c2cccc(Cl)c2)c1
36 (≈ 72 µM) | 2.41 | 56.3 | 60.1 | > 100000 | > 100000 | 2.25 | > 100000 | COc1ccc(Cl)cc1S(=O)(=O)c1c2cc(C(=O)Nc3ccc(C(=O)O)cc3)ccc2nn1C
9 (≈ 20.2 µM) | 3.07 | 165 | 142 | > 100000 | 38400 | 2.33 | > 100000 | O=C1CCCN1c1cccc(-c2nc([C@H]3CCCCN3C(=O)COc3ccccc3)no2)c1
82 (≈ 197 µM) | 2.52 | 305 | 188 | > 100000 | 17400 | 4.52 | > 100000 | O=C(COc1ccccc1)N1CCCC[C@@H]1c1noc(-c2ccc3cnccc3n2)n1
3 (≈ 5.99 µM) | 3.01 | 79.1 | 75.7 | 2130 | 698 | 2.83 | 1420 | COc1ccc(Cl)cc1S(=O)(=O)N1C[C@H](C)c2ccc(C(=O)Nc3ccc(C(=O)O)cc3)cc21
40 (≈ 89 µM) | 1.89 | 26.4 | 51.2 | 4340 | 1360 | 0.03 | 1250 | Cc1cc(C)cc(S(=O)(=O)c2n[nH]c3ccc(C(=O)Nc4ccc(C(=O)O)cc4)cc23)c1
18 (≈ 41.1 µM) | 3 | 146 | 27.9 | > 100000 | > 100000 | 2.17 | > 100000 | CC(=O)Nc1cc(-c2noc([C@H]3CCCCN3C(=O)COc3ccccc3)n2)ccc1F
5 (≈ 9.26 µM) | 0.39 | 20.4 | 11.6 | > 100000 | > 100000 | 3.65 | 992 | COc1ccc(Cl)cc1S(=O)(=O)N1CCSc2ccc(C(=O)Nc3nc(CC(=O)O)cs3)cc21
125 (≈ 259 µM) | 1.75 | 26 | 51 | 2620 | 1580 | 1.79 | 2680 | Cc1cc(C)cc(S(=O)(=O)N2CCSc3ccc(C(=O)Nc4ccc(C(=O)O)cc4)cc32)c1
14 (≈ 30.3 µM) | 2.62 | 103 | 50.6 | > 100000 | 50600 | 3.82 | > 100000 | O=C1CN(c2cccc(-c3noc([C@H]4CCCCN4C(=O)COc4ccccc4)n3)c2)C(=O)N1
195 (≈ 387 µM) | -0.42 | 575 | 232 | 24600 | 5450 | 0.57 | 22600 | COc1ccc(Cl)cc1S(=O)(=O)N1CCOc2ccc(C(=O)Nc3ccc(C(=O)O)nc3)cc21
319 (≈ 711 µM) | 0.72 | 147 | 180 | > 100000 | > 100000 | 0.43 | 491 | COc1ccc(Cl)cc1Cc1c[nH]c2ccc(C(=O)Nc3ccc(CC(=O)O)cc3)cc12
47 (≈ 93.3 µM) | 0.2 | 169 | 328 | > 100000 | > 100000 | 0.74 | > 100000 | COc1ccc(Cl)cc1S(=O)(=O)N1CCOc2ncc(C(=O)Nc3ccc(C(=O)O)cc3)cc21

Compound | solubility kinetic [1] [µg/mL] | logD [2] | IC50 [3] [nM] | IC50 [4] [nM] | IC50 [5] [nM] | IC50 [6] [nM] | Papp [7] [×10⁻⁶ cm/s] | IC50 [8] [nM]
COc1ccc(Cl)cc1Cn1cc(C(=O)O)c2ccc(C(=O)Nc3ccccc3)cc21 | < 1 | 3.13 | 104 | 99.6 | > 100000 | > 100000 | 0.53 | > 100000

Source: ChEMBL document CHEMBL3431459, “Roche carnitine palmitoyltransferase modulator screening data (supplementary data associated with the publication CHEMBL2216752)”
